≈ marks a conversion by molar mass, not a printed value.
What was measured:
Type in all cases: cell-based
[1] = tested on: yeast, and filamentous fungi; experiment: Antifungal activity: microbroth dilution (yeasts) and disk diffusion (filamentous fungi); conditions: panel of yeast and filamentous fungi (Table 12)
Procedure: Antimicrobial Assays. Susceptibility testing was performed using the microbroth dilution method in 96 round-well microtiter plates following the general guidelines described by the Clinical and Laboratory Standards Institute (CLSI). Compounds were prepared as 50λ of stocks (10 mM) by dissolving in dI H2O. All bacterial strains were grown and assayed in Mueller-Hinton and M9 glucose media (with amendments added as required), and yeast strains in YMM. Overnight cultures were inoculated into 3 mL of fresh growth media following a 1:100 dilution. Upon mid-exponential growth (OD600 0.4-0.6), cultures were diluted to 5×10^6 CFU mL-1 (based on previously determined calibration curves) and used as inoculum into assay plates. Wells contained 100 μL of media with 5×10^5 CFU mL-1 of test organism, and serial ½-dilutions of the test compound (starting with 200 μM). E. coli WM6242 was assayed with induction of the phosphonic acid uptake system including 1 mM IPTG in assay wells. […] Culture densities (OD600) were recorded using a Bio-Rad xMark microplate spectrophotometer after 16 hours for all strains except Bacillus, which were after 24 hours. […]
Antimicrobial Assays. […] Culture densities (OD600) were recorded using a Bio-Rad xMark microplate spectrophotometer after 16 hours for all strains except bacilli, which were recorded after 24 hours. […]

[2] = tested on: Escherichia coli WM6242 (Pn Uptake Induced); experiment: Microbroth dilution MIC, phosphonate uptake induced with 1 mM IPTG
Procedure: (§1) Antimicrobial Assays. […] Compounds were prepared as 50λ of stocks (10 mM) by dissolving in dI H2O. […] Overnight cultures were inoculated into 3 mL of fresh growth media following a 1:100 dilution. Upon mid-exponential growth (OD600 0.4-0.6), cultures were diluted to 5×10^6 CFU mL-1 (based on previously determined calibration curves) and used as inoculum into assay plates. Wells contained 100 μL of media with 5×10^5 CFU mL-1 of test organism, and serial ½-dilutions of the test compound (starting with 200 μM). E. coli WM6242 was assayed with induction of the phosphonic acid uptake system including 1 mM IPTG in assay wells. […] Microtiter plates were incubated with shaking (220 rpm) at their respective growth temperatures. […] Assays were performed in triplicated on separate independent days. […] Minimum inhibitory concentrations are from triplicate assays performed on separate days.

[3] = tested on: Escherichia coli WM6242; experiment: Microbroth dilution MIC; conditions: Table 2 (MIC90), triplicate
Procedure: as §1

[4] = tested on: Pseudomonas syringae pv. Tomato Max 14; experiment: Microbroth dilution MIC; conditions: Table 13, minimal media
Procedure: (§2) Antimicrobial Assays. […] Susceptibility testing was performed using the microbroth dilution method in 96 round-well microtiter plates as previously described [A20]. Compounds were prepared as 50× of stocks (10 Mm) by dissolving in Di H2O. All bacterial strains were grown and assayed M9 glucose media (with amendments added as required), and yeast strains in YMM. Controls wells contained 200 µM kanamycin (for bacteria) or nystatin (for yeasts), no compound addition (vehicle only), and no cell addition (added media instead). Culture densities (OD600) were recorded using a Bio-Rad xMark microplate spectrophotometer after 16 hours for all strains except bacilli, which were recorded after 24 hours. […] MICs values are from triplicate assays performed on separate days. Disk diffusion assays were used to assess antimicrobial activity of the purified compounds against filamentous fungi and against Mycobacterium smegmatis [A20].

[5] = tested on: Pseudomonas fluorescens Pf5; experiment: Microbroth dilution MIC; conditions: Table 13, minimal media
Procedure: as §2

[6] = tested on: Pseudomonas medocina Palleroni ATCC 25411; experiment: Microbroth dilution MIC; conditions: ATCC25411, Table 13, minimal media
Procedure: as §2

[7] = tested on: Acidovorax temperans ATCC 49665; experiment: Microbroth dilution MIC; conditions: ATCC49665, Table 13, minimal media
Procedure: as §2

[8] = tested on: Salmonella enterica ser. Livingstone 1236H; experiment: Microbroth dilution MIC
Procedure: as §2

[9] = tested on: Salmonella enterica ser. Tennessee E2007000304; experiment: Microbroth dilution MIC; conditions: Table 13, minimal media
Procedure: as §2

[10] = tested on: Acidovroax delafieldii ATCC 17505; experiment: Microbroth dilution MIC; conditions: Table 13, minimal media
Procedure: as §2

[11] = tested on: Acidovorax konjacii ATCC 33996; experiment: Microbroth dilution MIC; conditions: Table 13, minimal media
Procedure: as §2

[12] = tested on: Acidovorax avenae ATCC 19860; experiment: Microbroth dilution MIC; conditions: Paracidovorax avenae, ATCC19860, Table 13, minimal media
Procedure: as §2

[13] = tested on: Acidovorax citrulli ATCC 29625; experiment: Microbroth dilution MIC; conditions: Paracidovorax citrulli, ATCC29625, Table 13, minimal media
Procedure: as §2

[14] = tested on: Curtobacterium sp. MMLR14_014; experiment: Antibacterial susceptibility testing; conditions: strains of Curtobacterium commonly present in soils and on plants
Procedure: as §2

[15] = tested on: Salmonella enterica LT2; experiment: Microbroth dilution MIC; conditions: for MIC: Salmonella enterica LT2
Procedure: (§3) Antimicrobial Assays. Susceptibility testing was performed using the microbroth dilution method in 96 round-well microtiter plates following the general guidelines described by the Clinical and Laboratory Standards Institute (CLSI). Compounds were prepared as 50λ of stocks (10 mM) by dissolving in dI H2O. All bacterial strains were grown and assayed in Mueller-Hinton and M9 glucose media (with amendments added as required), and yeast strains in YMM. Overnight cultures were inoculated into 3 mL of fresh growth media following a 1:100 dilution. Upon mid-exponential growth (OD600 0.4-0.6), cultures were diluted to 5×10^6 CFU mL-1 (based on previously determined calibration curves) and used as inoculum into assay plates. Wells contained 100 μL of media with 5×10^5 CFU mL-1 of test organism, and serial ½-dilutions of the test compound (starting with 200 μM). E. coli WM6242 was assayed with induction of the phosphonic acid uptake system including 1 mM IPTG in assay wells. Controls wells contained 200 µM kanamycin (for bacteria) or nystatin (for yeasts), no compound addition (vehicle only), and no cell addition (added media instead). Microtiter plates were incubated with shaking (220 rpm) at their respective growth temperatures. Culture densities (OD600) were recorded using a Bio-Rad xMark microplate spectrophotometer after 16 hours for all strains except Bacillus, which were after 24 hours. Assays were performed in triplicated on separate independent days. […] Minimum inhibitory concentrations are from triplicate assays performed on separate days.
as §2

[16] = tested on: Acinetobacter calcoaceticus ATCC 23055; experiment: Microbroth dilution MIC
Procedure: as §3, §2

[17] = tested on: Staphylococcus aureus ATCC 23055; experiment: Microbroth dilution MIC
Procedure: as §3, §2

[18] = tested on: Pseudomonas aeruginosa K; experiment: Microbroth dilution MIC; conditions: for MIC: Pseudomonas aeruginosa K
Procedure: as §3, §2

[19] = tested on: Rhodococcus jostii RHA1; experiment: Microbroth dilution MIC
Procedure: as §3, §2

[20] = tested on: Bacillus megaterium ATCC 19213; experiment: Microbroth dilution MIC
Procedure: as §3, §2

[21] = tested on: Erwinia rhapontici KSJ3948; experiment: Microbroth dilution MIC
Procedure: as §3, §2

[22] = tested on: Serratia marcescens NRRL B-2544; experiment: Microbroth dilution MIC; conditions: for MIC: Serratia marcescens NRRL B-2544
Procedure: as §3, §2

[23] = tested on: Citrobacter freundii ATCC 8090; experiment: Microbroth dilution MIC
Procedure: as §3, §2

[24] = tested on: Pantoea ananatis LMG 20103; experiment: Microbroth dilution MIC
Procedure: as §3, §2

[25] = tested on: Escherichia coli K12; experiment: Microbroth dilution MIC; conditions: for MIC: Escherichia coli K12
Procedure: as §3, §2

[26] = tested on: Bacillus subtilis ATCC 6633; experiment: Microbroth dilution MIC
Procedure: as §3, §2

[27] = tested on: Enterobacter aerogenes CDC 1998-68; experiment: Microbroth dilution MIC
Procedure: as §3, §2

[28] = tested on: Pseudomonas aeruginosa PA01; experiment: Microbroth dilution MIC
Procedure: as §3, §2

[29] = tested on: Pseudomonas syringae B278a; experiment: microbe, parasite or virus in culture; conditions: Table 13, minimal media
Procedure: as §2

[30] = Table 2 (MIC90), microbroth dilution, triplicate
[31] = Table 13, minimal media, ≥90% growth inhibition
[32] = ATCC23055, Table 2 (MIC90), microbroth dilution, triplicate

CC(N)C(=O)NC(CP(=O)(O)O)C(=O)O (stereo not drawn) [Compound 2]
antifungal activity (in words) [1]: neither compound exhibited antifungal activity
MIC [2]: > 200 µM
MIC [3]: > 200 µM
MIC [4]: > 200 µM
MIC [5]: > 200 µM
MIC [6]: > 200 µM
MIC [7]: > 200 µM
MIC [8]: > 200 µM
MIC [9]: > 200 µM
MIC [10]: > 200 µM
MIC [11]: > 200 µM
MIC [12]: > 200 µM
MIC [13]: > 200 µM
inhibition (in words) [14]: Neither compound inhibited
MIC [15, 30]: > 200 µM
MIC [15, 31]: >200 µM
MIC [16, 32]: > 200 µM
MIC ([16]; Table 13, minimal media): >200 µM
MIC [17, 32]: > 200 µM
MIC ([17]; Table 13, minimal media): >200 µM
MIC [18, 30]: > 200 µM
MIC ([18]; Table 13, minimal media): >200 µM
MIC [19, 30]: > 200 µM
MIC ([19]; Table 13, minimal media): >200 µM
MIC ([20]; Priestia megaterium, ATCC19213, Table 2 (MIC90), microbroth dilution, triplicate): 12.5 µM (≈ 3 µg/mL)
MIC ([20]; Table 13, minimal media): 12.5 µM (≈ 3 µg/mL)
MIC ([21]; KSJ3948, Table 2 (MIC90), Erwinia rhapontici KSJ, microbroth dilution, triplicate): > 200 µM
MIC ([21]; Table 13, Erwinia rhapontici KSJ3948, minimal media, ≥90% growth inhibition): >200 µM
MIC ([22]; NRRLB2544, Table 2 (MIC90), microbroth dilution, triplicate): > 200 µM
MIC ([22]; Table 13, minimal media): >200 µM
MIC ([23]; ATCC8090, Table 2 (MIC90), microbroth dilution, triplicate): > 200 µM
MIC [23, 31]: >200 µM
MIC ([24]; LMG20103, Table 2 (MIC90), microbroth dilution, triplicate): 100 µM (≈ 24 µg/mL)
MIC [24, 31]: 100 µM (≈ 24 µg/mL)
MIC [25, 30]: > 200 µM
MIC [25, 31]: >200 µM
MIC ([26]; ATCC6633, Table 2 (MIC90), microbroth dilution, triplicate): 200 µM (≈ 48 µg/mL)
MIC ([26]; Table 13, minimal media): 200 µM (≈ 48 µg/mL)
MIC ([27]; Klebsiella aerogenes, CDC199868, Table 2 (MIC90), microbroth dilution, triplicate): > 200 µM
MIC [27, 31]: >200 µM
MIC [28, 30]: > 200 µM
MIC ([28]; Table 13, minimal media): >200 µM
MIC [29]: > 200 µM

CC(N)C(=O)NC(C)C(=O)NC(CP(=O)(O)O)C(=O)O (stereo not drawn) [Compound 3]
inhibition (in words) [14]: Neither compound inhibited
inhibitory activity compared with phosphonoalamide A (previously measured) ([15]; S. enterica LT2, i.e. lower MICs): greater inhibitory activity
inhibitory activity compared with phosphonoalamide A (previously measured) ([18]; P. aeuroginosa K, i.e. lower MICs): greater inhibitory activity
inhibitory activity compared with phosphonoalamide A (previously measured) ([22]; S. marcescens B-2544, i.e. lower MICs): greater inhibitory activity
inhibitory activity compared with phosphonoalamide A (previously measured) ([25]; E. coli K12, i.e. lower MICs): greater inhibitory activity

— US20250325569A1, “COMPOSITIONS AND METHODS OF MAKING AND USE THEREOF” (Ohio State Innovation Foundation, priority 2022, published 2025)
